“Also recorded” adds a separate entry of the source.
System: cryopreserved mouse sperm
Experiment: In vitro fertilization with thawed cryopreserved sperm: fertilization rate (#2-cell embryos/# total oocytes)
Format: cell-based
Conditions: for effect on fertilization rate / fertility of cryopreserved C57BL/6J sperm: MTG 159 μM to 636 μM in CPM, relative to presently-available methods, FIG. 1
Procedure: The epididymides and vas deferentia are extracted from the C57BL/6J male and placed into the cryoprotective media described herein. […] Incisions are made in the tissues, allowing the sperm to swim out into the CPM; this is allowed for at least 5 but for less than 20 min. The residual tissues are then removed from the collection drop. Ten micro liters of the sperm sample are loaded into as many as one hundred 250 μL French straws (IMV; Maple Grove, Minn.). Two hundred and fifty microliter straws, containing a 5.5 cm column of CPM, a 2.5 cm column of air, a 0.6 cm column of sperm sample followed by a column of air, are sealed with an instantaneous heat sealer. The straws are loaded into cassettes and exposed to liquid nitrogen vapor for at least 10 min before being plunged into the liquid nitrogen. This essentially cools the sperm at 37° C./min.
Subsequent to storage in liquid nitrogen, 3 samples from each treatment are thawed in a 37° C. water bath for 30 sec, and then each 10 μL aliquot is placed directly into its own 500 μL in vitro fertilization (IVF) drop of Cooks Mouse Vitro Fert (Cook Australia; Queensland, Australia). After an hour of incubation, 4 cumulus intact oocyte clutches from superovulated C57BL/6J females are added to the in vitro fertilization drops. IVF is carried out using methods known to those of skill in the art, such as by the methods described by Nakagata. (Nakagata, 2000a; Nakagata, 2000b). The sperm and oocytes are incubated together for 4 hrs before the presumptive zygotes are removed from the IVF drop and placed in a culture drop for overnight incubation.
Approximately 18 hours later, the percentage of oocytes developing into 2-cell embryos is determined (#2-cell embryos/# total oocytes). For statistical analysis, percents are arcsine transformed and the averages of at least 3 IVF drops per treatment are evaluated with a T-Test. A difference between treatments is illustrated with an asterisk (p<0.05). For presentation, means and standard errors were converted back into percents. […]
Ten μL aliquots of sperm from a variety of mouse strains as listed in Table 7 are frozen in the CPM with 477 μM monothioglycerol as ROS(CPM). A total of at least 6 sperm samples per treatment within a strain are utilized. These represented at least 3 samples from each of at least 2 sets of 2 males whose sperm are pooled at the time of collection and then split into the two treatments. Subsequent to thawing the samples are placed directly into their own 500 μL in vitro fertilization (IVF) drop of Cooks Mouse Vitro Fert (Cook Australia; Queensland, Australia; (Quinn et al., 1995)). After an hour incubation, 4 cumulus intact oocyte clutches from isogenic strains were added to the incubation medium. Following a 4 hr co-incubation, the presumptive zygotes were washed and cultured overnight. Approximately 18 hours later, the fertilization rate was determined (% 2 cell: #2-cell embryos/# total oocytes, see Table 7). The average percentage was determined. For each line, about 30 2-cell embryos were implanted into receptive females. After approximately 21 days, the number of live born mice was determined, shown as % Live born in Table 7.
To determine if storage of the cryoprotective media at −80° C. altered the activity of the C57BL/6J mouse sperm., in vitro fertilizations (IVF) were preformed as described previously (see Example 1, also see publications by Nakagata, 2000a; Nakagata, 2000b, Sztein et al. 2000; Byers et al. 2006). Briefly the sperm and oocytes, both from C57BL/6J mice, were incubated together for 4 hrs in a benchtop incubator at 37° C. After 4 hrs of co-incubation the presumptive zygotes were washed through two 150 μL drops of IVF media (MVF; Cook's; Spencer, Ind.) and then cultured overnight. Approximately 18 hrs later, the proportion of oocytes fertilized was calculated by dividing the number of two-cell embryos by the sum of two-cells and normally appearing presumptive one-cell oocytes. […]

[1] = C57BL/6 sperm cryopreserved in CPM containing 1 mM free radical scavenger
[2] = C57BL/6 sperm cryopreserved in CPM containing 5 mM free radical scavenger

Row | Compound | MTG concentration that provided the best results (fertilization rate) (C57BL/6J sperm, MTG tested from 159 μM to 636 μM) [µM] | Fertilization Rate (2-cell embryos of total oocytes) (C57BL/6 sperm cryopreserved in CPM containing 0.477 mM free radical scavenger) [%] | effect on fertilization rate / fertility of cryopreserved C57BL/6J sperm | effect on fertilization rate / fertility of cryopreserved C57BL/6J sperm (listed as monothioglycerol) | Fertilization Rate (2-cell embryos of total oocytes) (C57BL/6 sperm cryopreserved in CPM containing 0.1 mM free radical scavenger) [%] | Fertilization Rate (2-cell embryos of total oocytes) [1] [%] | Fertilization Rate (2-cell embryos of total oocytes) [2] [%] | Fertilization Rate (2-cell embryos of total oocytes) (C57BL/6 sperm cryopreserved in CPM containing 20 mM free radical scavenger) [%] | Fertilization Rate (2-cell embryos of total oocytes) (C57BL/6 sperm cryopreserved in CPM containing 0.5 mM free radical scavenger) [%] | Fertilization Rate (2-cell embryos of total oocytes) (C57BL/6 sperm cryopreserved in CPM containing 50 mM free radical scavenger) [%] | effect on fertilization rates / fertility of cryopreserved C57BL/6J sperm (GSH 500 μM to 5 mM in CPM, compared to CPM without a reducing agent, FIG. 2)
1 | OCC(O)CS (stereo not shown) [MTG, monothioglycerol] | 477 | 75.2 | improved fertilization rate | enhances the fertility | – | – | – | – | – | – | –
2 | O[C@H](CS)[C@H](O)CS (racemic) [DTT, dithiothreitol] | – | – | – | – | 19.2 | 2 | 0.9 | 6.4 | – | – | –
3 | N[C@@H](CCC(=O)N[C@@H](CS)C(=O)NCC(=O)O)C(=O)O [GSH, reduced glutathione] | – | – | – | – | – | 49.5 | 39.9 | – | 59.7 | 0.0 | increase the fertilization rates; also recorded: enhances the fertility
